# Literature values as cited in US10532995B2, “Substituted pyrazole compounds as serine protease inhibitors” (VERSEON CORPORATION, priority 2015, dated 2020).
# System: malignant breast tumors
# Details: cited from earlier work
structure (smiles),measurement,setting,value
CCCCCCOC(=O)NC(=N)c1ccc(NCc2nc3cc(C(=O)N(CCC(=O)OCC)c4ccccn4)ccc3n2C)cc1 [dabigatran etexilate],reduction in tumor volume,"at 4 weeks, treated mice",50%
same,weight loss in treated mice,at 4 weeks,no weight loss
same,reduction of tumor cells in the blood and liver micrometastases,treated mice,50-60%
